pIC50: −log10 of the molar value. Where two headings read alike, the source gives them in different places.
Columns and labels:
[1] = rcm bond
[2] = rcm bond, DCM, 25.0 °C
[3] = target: T1, EZH2 within the PRC2 complex (Homo sapiens, UniProt Q15910); experiment: Assay Protocol 1: EZH2 methyltransferase scintillation proximity assay, mononucleosome substrate; format: biochemical; conditions: Assay Protocol 1; SPA, 3H-SAM, Histone H3 of mononucleosome purified from HeLa cells; 5-member PRC2 complex; read-out: EZH2 IC50
T1 construct: FLAG; made in house; host or cells: Sf9 cells
T1 sequence (Q15910 whole entry): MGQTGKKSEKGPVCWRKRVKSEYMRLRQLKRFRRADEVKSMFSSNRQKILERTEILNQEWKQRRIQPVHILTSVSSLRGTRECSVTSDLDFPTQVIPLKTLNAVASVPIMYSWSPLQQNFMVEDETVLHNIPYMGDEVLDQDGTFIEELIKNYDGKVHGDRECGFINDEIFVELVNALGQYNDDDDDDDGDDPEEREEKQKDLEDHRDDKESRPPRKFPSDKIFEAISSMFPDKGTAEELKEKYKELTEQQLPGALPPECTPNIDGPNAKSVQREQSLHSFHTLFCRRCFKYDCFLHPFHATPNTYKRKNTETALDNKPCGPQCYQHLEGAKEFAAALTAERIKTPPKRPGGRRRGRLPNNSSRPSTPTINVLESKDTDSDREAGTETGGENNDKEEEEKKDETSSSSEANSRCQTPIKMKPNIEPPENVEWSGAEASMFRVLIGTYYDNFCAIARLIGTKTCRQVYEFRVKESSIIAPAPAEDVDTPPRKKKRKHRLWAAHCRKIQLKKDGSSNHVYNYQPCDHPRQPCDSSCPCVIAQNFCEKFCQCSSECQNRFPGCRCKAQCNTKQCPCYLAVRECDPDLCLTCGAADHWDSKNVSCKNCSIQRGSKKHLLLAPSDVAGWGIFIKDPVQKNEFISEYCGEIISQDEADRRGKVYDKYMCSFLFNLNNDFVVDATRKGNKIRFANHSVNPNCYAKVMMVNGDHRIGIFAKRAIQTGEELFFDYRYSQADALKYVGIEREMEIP
T1 sequence (O75530 whole entry partner): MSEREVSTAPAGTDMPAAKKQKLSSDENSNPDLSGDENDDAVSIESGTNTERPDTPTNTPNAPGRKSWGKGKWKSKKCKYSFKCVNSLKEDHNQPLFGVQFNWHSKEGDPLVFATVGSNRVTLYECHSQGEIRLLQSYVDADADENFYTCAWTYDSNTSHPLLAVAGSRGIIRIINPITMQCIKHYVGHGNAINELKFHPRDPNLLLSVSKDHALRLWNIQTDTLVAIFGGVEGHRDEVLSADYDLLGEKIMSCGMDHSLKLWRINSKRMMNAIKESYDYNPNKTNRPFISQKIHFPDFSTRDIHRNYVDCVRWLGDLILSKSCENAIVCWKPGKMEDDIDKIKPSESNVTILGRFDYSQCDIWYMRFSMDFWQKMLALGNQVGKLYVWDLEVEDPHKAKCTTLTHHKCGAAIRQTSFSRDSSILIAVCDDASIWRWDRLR
T1 sequence (Q15022 whole entry partner): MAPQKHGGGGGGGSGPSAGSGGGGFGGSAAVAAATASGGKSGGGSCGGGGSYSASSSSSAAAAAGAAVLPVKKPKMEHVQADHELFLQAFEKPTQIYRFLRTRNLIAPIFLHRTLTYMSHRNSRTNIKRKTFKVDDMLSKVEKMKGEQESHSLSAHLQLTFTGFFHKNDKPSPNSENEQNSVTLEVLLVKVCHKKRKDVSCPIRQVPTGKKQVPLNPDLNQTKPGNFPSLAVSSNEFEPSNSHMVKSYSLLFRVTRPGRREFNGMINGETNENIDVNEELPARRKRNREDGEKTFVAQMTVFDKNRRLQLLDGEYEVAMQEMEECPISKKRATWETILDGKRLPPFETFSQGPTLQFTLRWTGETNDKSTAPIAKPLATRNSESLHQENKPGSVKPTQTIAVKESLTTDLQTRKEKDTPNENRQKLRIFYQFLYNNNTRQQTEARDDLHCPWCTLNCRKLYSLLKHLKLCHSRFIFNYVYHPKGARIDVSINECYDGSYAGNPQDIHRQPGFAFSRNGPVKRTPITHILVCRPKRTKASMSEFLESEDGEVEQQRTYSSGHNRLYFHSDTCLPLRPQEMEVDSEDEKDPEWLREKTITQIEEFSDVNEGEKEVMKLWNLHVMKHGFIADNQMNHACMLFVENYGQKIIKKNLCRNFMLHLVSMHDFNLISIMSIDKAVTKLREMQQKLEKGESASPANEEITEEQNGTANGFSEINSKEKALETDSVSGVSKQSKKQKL
T1 sequence (Q09028 whole entry partner): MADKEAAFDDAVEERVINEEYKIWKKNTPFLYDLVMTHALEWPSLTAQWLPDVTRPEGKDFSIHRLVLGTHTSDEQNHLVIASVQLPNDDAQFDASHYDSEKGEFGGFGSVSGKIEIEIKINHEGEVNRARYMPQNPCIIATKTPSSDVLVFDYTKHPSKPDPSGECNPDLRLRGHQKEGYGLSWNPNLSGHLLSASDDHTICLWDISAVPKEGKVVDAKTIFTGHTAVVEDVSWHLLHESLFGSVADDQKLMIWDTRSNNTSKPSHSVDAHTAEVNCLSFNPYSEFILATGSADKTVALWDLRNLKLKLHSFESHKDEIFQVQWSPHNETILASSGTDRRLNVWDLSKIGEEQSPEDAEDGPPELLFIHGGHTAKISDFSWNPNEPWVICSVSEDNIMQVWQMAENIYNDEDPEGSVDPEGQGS
T1 sequence (Q6ZN18 whole entry partner): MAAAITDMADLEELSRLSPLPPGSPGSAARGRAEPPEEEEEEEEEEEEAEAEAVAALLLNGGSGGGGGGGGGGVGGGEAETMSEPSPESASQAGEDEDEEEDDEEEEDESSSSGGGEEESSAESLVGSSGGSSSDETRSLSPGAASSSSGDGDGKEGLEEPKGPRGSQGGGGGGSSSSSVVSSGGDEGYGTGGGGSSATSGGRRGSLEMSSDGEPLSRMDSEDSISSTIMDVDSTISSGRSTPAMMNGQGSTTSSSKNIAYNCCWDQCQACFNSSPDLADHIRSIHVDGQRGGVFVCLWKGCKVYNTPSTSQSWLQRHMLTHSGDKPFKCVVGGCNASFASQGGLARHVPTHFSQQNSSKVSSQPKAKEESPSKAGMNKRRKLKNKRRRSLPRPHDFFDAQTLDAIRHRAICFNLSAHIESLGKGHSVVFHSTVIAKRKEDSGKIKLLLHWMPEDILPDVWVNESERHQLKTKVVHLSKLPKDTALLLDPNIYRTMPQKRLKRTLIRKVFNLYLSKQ
Protocol: Compounds contained herein were evaluated for their ability to inhibit the methyltransferase activity of EZH2 within the PRC2 complex. […] Mononucleosomes were captured on SPA beads and the resulting signal is read on a ViewLux plate reader. • 1. Prepare 10 mM stock of compounds from solid in 100% DMSO. • 2. […] Dispense 100 nL of compound from the dilution plate into reaction plates (Grenier Bio-One, 384-well, Cat#784075). Prepare the following solutions: • 1. 50 mM Tris-HCl, pH 8: Per 1 L of base buffer, combine 1 M Tris-HCl, pH 8 (50 mL) and distilled water (950 mL). • 2. 1× Assay Buffer: […] SPA Bead Suspension: […] Per 10 mL of 2× Substrate Solution, combine 1× Assay Buffer (9728.55 uL), 800 ug/mL mononucleosomes (125 uL), 1 mM cold SAM (4 uL), and 7.02 uM 3H-SAM (142.45 uL; 0.55 mCi/mL) to provide a final concentration of 5 ug/mL nucleosomes, 0.2 uM cold SAM, and 0.05 uM 3H-SAM. • 6. 2.67× Quench/Bead Mixture: Per 10 mL of 2.67× Quench/Bead Mixture, combine ddH2O (9358 uL), 10 mM cold SAM (267 uL), 40 mg/mL Bead Suspension (375 uL) to provide a final concentration of 100 uM cold SAM and 0.5 mg/mL SPA beads. • 1. Dispense 100 nL/well of 100× Compound to test wells (as noted above). • 2. […] • 1. Dispense 5 uL/well of 1× Assay Buffer to column 18 (low control reactions). • 2. Dispense 5 uL/well of 2× Enzyme Solution to columns 1-17, 19-24. • 3. Spin assay plates for ˜1 minute at 500 rpm. • 4. Stack the assay plates, covering the top plate. • 5. Incubate the compound/DMSO with the enzyme for 30 minutes at room temperature. • 6. Dispense 5 uL/well of 2× Substrate Solution to columns 1-24. • 7. Spin assay plates for ˜1 minute at 500 rpm. • 8. Stack the assay plates, covering the top plate. • 9. Incubate the assay plates at room temperature for 1 hour. • 1. Dispense 5 uL/well of the 3× Quench/Bead Mixture to columns 1-24. • 2. Seal the top of each assay plate with adhesive TopSeal. • 3. Spin assay plates for ˜1 minute at 500 rpm. • 4. […] • 1. Read the assay plates on the Viewlux Plate Reader utilizing the 613 nm emission filter with a 300 s read time. Reagent addition can be done manually or with automated liquid handler. The final DMSO concentration in this assay is 1%. The positive control is in column 6; negative control is in column 18. Final starting concentration of compounds is 100 μM. Percent inhibition was calculated relative to the DMSO control for each compound concentration and the resulting values were fit using standard IC50 fitting parameters within the ABASE data fitting software package.

[4] = target: T1, EZH2 within the PRC2 complex; experiment: Assay Protocol 2: EZH2 methyltransferase scintillation proximity assay, biotinylated histone H3 peptide substrate; format: biochemical; conditions: SPA, 3H-SAM, biotinylated unmethylated histone H3K27 peptide substrate, 5-member PRC2 complex
Method in brief: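 PRC2-complexed EZH2 was run in 50 mM Tris-HCl pH 8, 2 mM MgCl2, 4 mM DTT and 0.001% Tween-20. It was added to a 2× mix of 10 uM biotinylated H3K27 peptide, 0.15 uM 3H-SAM and 2.85 uM cold SAM with streptavidin SPA beads. After 60 min at room temperature and a cold-SAM quench, IC50 was fitted from percent inhibition versus DMSO.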

[5] = from C=CCCc1cc(C)nc(OC)c1CNC(=O)c1cccc(N(CC)C2CCOCC2)c1CC=C, 12-membered ring, Grubbs II (2 x 20 mol%), DCM, 25.3 mM, 25.0 °C, 36.0 h
[6] = from C=CCCc1cc(C)nc(OC)c1CNC(=O)c1ccnc(Cl)c1CC=C, 12-membered ring, Grubbs II (10 mol%), DCM, 10.6 mM, 16.0 h

Compound: CCN(c1cccc2c1C/C=C/CCc1cc(C)nc(OC)c1CNC2=O)C1CCC(F)(F)CC1
- ring closure, yield after HPLC ([1]; from C=CCCc1cc(C)nc(OC)c1CNC(=O)c1cccc(N(CC)C2CCC(F)(F)CC2)c1CC=C, 12-membered ring, Grubbs II (15 mol%), DCM, 32.1 mM, 25.0 °C, 16.0 h): 62%

Compound: CCN(c1cccc2c1C/C=C/CCc1cc(C)nc(OC)c1CNC2=O)C1CCOCC1
- ring closure, yield after HPLC [1, 5]: 58%

Compound: CCN(c1cccc2c1C/C=C\CCc1cc(C)nc(OC)c1CNC2=O)C1CCOCC1
- ring closure, yield after HPLC [1, 5]: 23%

Compound: CCN(c1cccc2c1C/C=C\Cc1cc(C)nc(OC)c1CNC2=O)[C@H]1CC[C@H](NC(=O)OC(C)(C)C)CC1
- ring closure, yield after HPLC ([1]; from C=CCCc1cc(C)nc(OC)c1CNC(=O)c1cccc(N(CC)[C@H]2CC[C@H](NC(=O)OC(C)(C)C)CC2)c1CC=C, 11-membered ring, Hoveyda-Grubbs (17.5 mol%), DCE, 16.0 mM, 50.0 °C): 13.7%

Compound: CCN(c1cccc2c1CC=CCCCCc1cc(C)nc(OC)c1CNC2=O)C1CCOCC1
- ring closure, isolated yield ([2]; from C=CCCCCc1cc(C)nc(OC)c1CNC(=O)c1cccc(N(CC)C2CCOCC2)c1CC=C, 14-membered ring, Grubbs II (10 mol%, then ca. 10 mg), 15.8 mM, 22.0 h): 73.1%

Compound: COc1cc(Cl)cc2c1CC=CCCCc1cc(C)nc(OC)c1CNC2=O
- ring closure, isolated yield ([2]; from C=CCCCc1cc(C)nc(OC)c1CNC(=O)c1cc(Cl)cc(OC)c1CC=C, 13-membered ring, Grubbs II (10 mol%), 19.6 mM, 16.0 h): 76%

Compound: COc1cc(Cl)cc2c1CC=CCCc1cc(C)nc(OC)c1CNC2=O
- ring closure, isolated yield ([2]; from C=CCCc1cc(C)nc(OC)c1CNC(=O)c1cc(Cl)cc(OC)c1CC=C, 12-membered ring, Grubbs II (10 mol%), 19.4 mM, 16.0 h): 69%

Compound: COc1nc(C)cc2c1CNC(=O)c1ccnc(Cl)c1C/C=C/CC2
- ring closure, yield after HPLC [1, 6]: 37.3%

Compound: COc1nc(C)cc2c1CNC(=O)c1ccnc(Cl)c1C/C=C\CC2
- ring closure, yield after HPLC [1, 6]: 18.3%

Compound: CCN(c1cccc2c1C/C=C/CCc1cc(C)[nH]c(=O)c1CNC2=O)C1CCN(C(C)C)CC1 [Example 32, (E)-10-(ethyl(1-isopropylpiperidin-4-yl)amino)-3-methyl-5,6,15,16-tetrahydrobenzo[c]pyrido[4,3-j][1]azacyclododecine-1,14(2H,9H)-dione]
- pIC50 [3]: 7.30
- pIC50 [4]: 6.80

Compound: CCN(c1cccc2c1C/C=C/CCc1cc(C)[nH]c(=O)c1CNC2=O)C1CCN(C)CC1 [Example 33, (E)-10-(ethyl(1-methylpiperidin-4-yl)amino)-3-methyl-5,6,15,16-tetrahydrobenzo[c]pyrido[4,3-j][1]azacyclododecine-1,14(2H,9H)-dione]
- pIC50 [3]: 7.40
- pIC50 [4]: 6.70

Compound: CCN(c1cccc2c1C/C=C/CCc1cc(C)[nH]c(=O)c1CNC2=O)C1CCN(S(C)(=O)=O)CC1 [Example 34, (E)-10-(ethyl(1-(methylsulfonyl)piperidin-4-yl)amino)-3-methyl-5,6,15,16-tetrahydrobenzo[c]pyrido[4,3-j][1]azacyclododecine-1,14(2H,9H)-dione]
- pIC50 [3]: 7.20
- pIC50 [4]: 6.90

Compound: CCN(c1cccc2c1C/C=C/CCc1cc(C)[nH]c(=O)c1CNC2=O)C1CCN(CCO)CC1 [Example 35, (E)-10-(ethyl(1-(2-hydroxyethyl)piperidin-4-yl)amino)-3-methyl-5,6,15,16-tetrahydrobenzo[c]pyrido[4,3-j][1]azacyclododecine-1,14(2H,9H)-dione]
- pIC50 [3]: 7.40
- pIC50 [4]: 6.70

Compound: CCN(c1cccc2c1C/C=C/CCc1cc(C)[nH]c(=O)c1CNC2=O)[C@H]1CC[C@H](N)CC1 [Example 36, (E)-10-((trans-4-aminocyclohexyl)(ethyl)amino)-3-methyl-5,6,15,16-tetrahydrobenzo[c]pyrido[4,3-j][1]azacyclododecine-1,14(2H,9H)-dione]
- pIC50 [3]: 7.80
- pIC50 [4]: 6.90

Compound: CCN(c1cccc2c1C/C=C/CCc1cc(C)[nH]c(=O)c1CNC2=O)[C@H]1CC[C@H](N(C)C)CC1 [Example 37, (E)-10-((trans-4-(dimethylamino)cyclohexyl)(ethyl)amino)-3-methyl-5,6,15,16-tetrahydrobenzo[c]pyrido[4,3-j][1]azacyclododecine-1,14(2H,9H)-dione]
- pIC50 [3]: 7.30
- pIC50 [4]: 6.90

Compound: CCN(c1cccc2c1C/C=C/CNCc1cc(C)[nH]c(=O)c1CNC2=O)C1CCOCC1 [Example 38, (E)-11-(ethyl(tetrahydro-2H-pyran-4-yl)amino)-3-methyl-5,6,7,10,16,17-hexahydro-1H-benzo[h]pyrido[4,3-c][1,6]diazacyclotridecine-1,15(2H)-dione]
- pIC50 [3]: 7.00
- pIC50 [4]: 6.80

Compound: CCN(c1cccc2c1C/C=C\CNCc1cc(C)[nH]c(=O)c1CNC2=O)C1CCOCC1 [Example 39, (Z)-11-(ethyl(tetrahydro-2H-pyran-4-yl)amino)-3-methyl-5,6,7,10,16,17-hexahydro-1H-benzo[h]pyrido[4,3-c][1,6]diazacyclotridecine-1,15(2H)-dione]
- pIC50 [3]: 5.90
- pIC50 [4]: 5.70

Compound: CCN(c1cccc2c1C/C=C/CCCc1cc(C)[nH]c(=O)c1CNC2=O)C1CCNCC1 [Example 40, (E)-11-(ethyl(piperidin-4-yl)amino)-3-methyl-5,6,7,10,16,17-hexahydro-1H-benzo[c]pyrido[4,3-k][1]azacyclotridecine-1,15(2H)-dione]
- pIC50 [3]: 7.49
- pIC50 [4]: 7.00

Compound: CCN(c1cccc2c1C/C=C/CCc1cc(C)[nH]c(=O)c1CNC2=O)C1CCN(CC2CC2)CC1 [Example 41, (E)-10-((1-(cyclopropylmethyl)piperidin-4-yl)(ethyl)amino)-3-methyl-5,6,15,16-tetrahydrobenzo[c]pyrido[4,3-j][1]azacyclododecine-1,14(2H,9H)-dione]
- pIC50 [3]: 7.40
- pIC50 [4]: 7.40

Compound: CCN(c1cccc2c1C/C=C/CCc1cc(C)[nH]c(=O)c1CNC2=O)C1CCN(CCC(F)(F)F)CC1 [Example 43, (E)-10-(ethyl(1-(3,3,3-trifluoropropyl)piperidin-4-yl)amino)-3-methyl-5,6,15,16-tetrahydrobenzo[c]pyrido[4,3-j][1]azacyclododecine-1,14(2H,9H)-dione]
- pIC50 [3]: 7.20
- pIC50 [4]: 6.70

Compound: CCN(c1cccc2c1C/C=C/CCc1cc(C)[nH]c(=O)c1CNC2=O)C1CCN(C(CO)CO)CC1 [Example 51, (E)-10-((1-(1,3-dihydroxypropan-2-yl)piperidin-4-yl)(ethyl)amino)-3-methyl-5,6,15,16-tetrahydrobenzo[c]pyrido[4,3-j][1]azacyclododecine-1,14(2H,9H)-dione]
- pIC50 [3]: 6.70
- pIC50 [4]: 6.40

Compound: CCN(c1cccc2c1C/C=C\CCc1cc(C)[nH]c(=O)c1CNC2=O)C1CCNCC1 [Example 52, (Z)-10-(ethyl(piperidin-4-yl)amino)-3-methyl-5,6,15,16-tetrahydrobenzo[c]pyrido[4,3-j][1]azacyclododecine-1,14(2H,9H)-dione]
- pIC50 [3]: 6.20
- pIC50 [4]: 5.70

Compound: CCN(c1cccc2c1CC=CCc1cc(C)[nH]c(=O)c1CNC2=O)C1CCNCC1 [Example 54, 9-(ethyl(piperidin-4-yl)amino)-3-methyl-5,8,14,15-tetrahydro-1H-benzo[c]pyrido[4,3-i][1]azacycloundecine-1,13(2H)-dione]
- pIC50 [3]: 5.40
- pIC50 [4]: 5.00

Compound: (E)-11-(ethyl(1-isopropylpiperidin-4-yl)amino)-3-methyl-5,6,7,10,16,17-hexahydro-1H-benzo[c]pyrido[4,3-k][1]azacyclotridecine-1,15(2H)-dione [Example 42]
- pIC50 [3]: 7.70
- pIC50 [4]: 6.80
